Measurements: US9168243B2, “Pharmaceutical compositions comprising 8-substituted dibenzylbutyrolactone lignans” (priority 2010, dated 2015)
“Also recorded” adds a separate entry of the source.

Legend:
Format in all cases: cell-based
LNCaP cells [1] = assay: Apoptosis after prolonged incubation with NTG alone; conditions: 0-100 μM NTG, 24-72 h
phospho-Akt(ser473) = assay: Western blot of Akt / phospho-Akt(ser473)
Procedure: (§1) Whole cell lysates were prepared by lysing floating and attached cells in Laemmli sample buffer and boiling the samples for 10 minutes. Proteins were separated by SDS-PAGE and transferred on PVDF membrane (Millipore). Western blotting was performed using antibodies against Akt, phospho-Akt (Ser473), GSK-3β, phospho-GSK-3β (Ser9) and phospho-EGF receptor Tyr(1068) (Cell Signalling Technology), Actin (clone AC-40; Sigma-Aldrich), PI3K p85α (clone 4/PI3-Kinase; BD Pharmingen), EGF receptor, Insulin receptor β and IGF-I receptor β (Santa Cruz Biotechnology), and Phospho-tyrosine (clone 4G10; Millipore). HRP-conjugated secondary antibodies were from Southern Biotechnology Associates, Promega, and Amersham Biosciences. The results were visualized using the ECL method (Amersham Biosciences) on x-ray film. The presented Western blot results are representative of at least three independent experiments. Densitometric analysis of Western blots was done using scanned films with the MCID M5+ software. The values were normalized to the untreated control sample, which was given the value 1. The histograms in FIG. 4 present a relative decrease in ratio of phosphorylated vs. non-phosphorylated protein compared to control cells.
(§2) LNCaP cells (+/−1 nM androgen) were treated with 0-100 μM enterolactone (ENL), matairesinol (MAT) or NTG for 1 hour prior to preparation of total cell lysates (FIG. 4A). The relative decrease in pAkt/Akt ratio was quantified from western blot analysis with Akt (60 kDa) and phospho-Akt(ser473) (Mean±SEM; n=4; Student's t-test *p<0.05, **p<0.01). Alternatively, androgen-deprived LNCaP cells were incubated with 100 μM NTG for 2 hours, fixed and labeled with Akt antibody followed by Alexa 546-conjugated secondary antibody. The samples were viewed at LSM 510 confocal microscope (63× oil objective, 543 nm excitation) (FIG. 4B). To examine the time-dependence of the observed inhibitory effect, LNCaP cells (+/−1 nM androgen) were incubated with 100 μM NTG for 0-8 hours after which total cell lysates were prepared. The western blot analysis with Akt, phospho-Akt(ser473), GSK-3β and phospho-GSK-3β(ser9) was quantified. The histogram presents a relative decrease in pAkt/Akt ratio (FIG. 4C.) or pGSK-3β/GSK-3β ratio (FIG. 4D.) compared to control cells (Mean±SEM; n=3). […]
Importantly, substitution with methyl group at position 8 further increases activity of dibenzylbutyrolactone lignans in sensitization of LNCaP prostate cancer cells to TRAIL-mediated apoptosis (FIG. 8). […] The samples were analyzed by flow cytometry and the fraction of sub-G0/G1 events (nuclear fragmentation) was detected as a measure of apoptotic cell death (mean±SEM; n=4). […]

phospho-GSK-3β(ser9) = assay: Western blot of GSK-3β / phospho-GSK-3β(ser9); conditions: LNCaP +/- 1 nM androgen; 100 μM NTG, 0-8 hours
Procedure: as §1, with “Densitometric analysis of Western blots was done using scanned films with the MCID M5+ software. The values were normalized to the untreated control sample, which was given the value 1. The histograms in FIG. 4 present a relative decrease in ratio of phosphorylated vs. non-phosphorylated protein compared to control cells.” left out
LNCaP cells (+/−1 nM androgen) were treated with 0-100 μM enterolactone (ENL), matairesinol (MAT) or NTG for 1 hour prior to preparation of total cell lysates (FIG. 4A). The relative decrease in pAkt/Akt ratio was quantified from western blot analysis with Akt (60 kDa) and phospho-Akt(ser473) (Mean±SEM; n=4; Student's t-test *p<0.05, **p<0.01). […] The western blot analysis with Akt, phospho-Akt(ser473), GSK-3β and phospho-GSK-3β(ser9) was quantified. […]

Akt = assay: Confocal microscopy of Akt localization; conditions: androgen-deprived LNCaP; 100 μM NTG, 2 hours
Procedure: After treatments, the cells cultured on coverslips were washed with PBS and fixed with 3% paraformaldehyde for 15 minutes at room temperature. The samples were permeabilized and blocked for one hour in 3% BSA 0.1% Tween in PBS. Akt was labeled with rabbit anti-Akt antibody (Cell signaling) and Alexa 546-conjugated anti-rabbit secondary antibody (Molecular Probes). After washing with PBS, the samples were mounted with DAPI Vectashield (Vector Laboratories) and viewed by Zeiss LSM 510 META laser-scanning confocal microscope (63× oil objective, 543 nm excitation).
as §2, with “To examine the time-dependence of the observed inhibitory effect, LNCaP cells (+/−1 nM androgen) were incubated with 100 μM NTG for 0-8 hours after which total cell lysates were prepared.” left out, “quantified.” for “quantified. The histogram presents a relative decrease in pAkt/Akt ratio (FIG. 4C.) or pGSK-3β/GSK-3β ratio (FIG. 4D.) compared to control cells (Mean±SEM; n=3).”

LNCaP cells [2] = assay: Clonogenic assay; conditions: 11 days
Procedure: Five hundred LNCaP cells were plated in 1 ml of culture medium and let to adhere prior to addition of the indicated treatments. After 11 days of incubation, cell colonies were fixed with glutaraldehyde (6.0% v/v), stained with crystal violet (0.5% w/v) and imaged using a digital camera.
To investigate the effects of NTG alone and in combination with TRAIL on colony formation ability, the LNCaP cells were plated in low confluency and treated for 11 days.

[3] = LNCaP +/- androgen, 100 μM NTG 2 hours, then medium change

COc1cc(CC2COC(=O)C2(O)Cc2ccc(O)c(OC)c2)ccc1O (centres unmarked) [NTG, Nortrachelogenin]
induction of apoptosis by NTG alone (LNCaP cells [1]): did not induce apoptosis
Akt phosphorylation (pAkt/Akt ratio) (phospho-Akt(ser473); LNCaP +/- 1 nM androgen, 0-100 μM lignan, 1 hour (NTG also 100 μM, 0-8 hours)): downregulates Akt and GSK-3β phosphorylation; also recorded: inhibit Akt phosphorylation yet more efficiently than ENL or MAT
time after washout at which Akt activity starts returning (phospho-Akt(ser473); [3]): 10 min
time after washout to total recovery of Akt activity (phospho-Akt(ser473); [3]): ≤ 1 h
GSK-3β phosphorylation (pGSK-3β/GSK-3β ratio) (phospho-GSK-3β(ser9)): downregulates Akt and GSK-3β phosphorylation
cellular localization of Akt (Akt): increases cytoplasmic localization of Akt
colony formation ability, single agent (LNCaP cells [2]; 10 ng/ml TRAIL or 40 μM NTG alone): clearly inhibited the growth of the plated cells
colony formation ability, NTG and TRAIL in combination (LNCaP cells [2]; 40 μM NTG and 10 ng/ml TRAIL): significant death of the cells that were seeded
